Laboratory results reported in patent publication US20240139205A1, “MODULATORS OF ARALAR FOR TREATING NEUROLOGICAL DISORDERS” (Universite de Lausanne, priority 2020, published 2024).

Experiments:
GABA release = conditions: literature statement (Amoroso 1990); cited from earlier work
[1] = test system: mitochondrial membrane potential; conditions: literature statement; cited from earlier work
Cyfip^85.1/+ flies [2] = assay: competition for food assay (total number of social events) in Cyfip haploinsufficient flies; assay type: in vivo, Drosophila; conditions: for social behavior deficit (social events): Cyfip^85.1/+ flies fed 5 days, GABA 50 μM, DABA 100 μM, VPA 1 mM; for number of social events: 1 mM in the food, 1 or 2 days
Protocol: (§1) Experiments were performed with socially experienced, 3-7 days-old male flies. Groups of eight males from the same genotype were anesthetized 24 h prior to the assay and placed in vials with food. On the day of the assay, the males were transferred without anesthesia to an empty vial and were deprived of food for 90 minutes, after which they were exposed to a food droplet and given 2 minutes to acclimate to this disturbance. The flies were then observed simultaneously for an additional 2 minutes, and the total number of social events was scored. Monitored social events were i.e. approaches, lunges, tussles, wing threat and the initiation of courtship. Of note, one interaction involving two or more flies was counted as one social event in total (Zwarts (2011), PNAS 108, 17070-17075. The behavioral assays were conducted in a behavioral chamber (25° C., 60-70% humidity) between 8 a.m. and 11 a.m. Statistics were calculated using a one-way fixed effect ANOVA model, and Kruskal Wallis test in combination with Dunn's multiple comparison test.
(§2) Example 8. GABA augmentation fully normalizes the behavioral abnormalities of Cyfip^85.1/+ flies. GABA levels were augmented in Cyfip^85.1/+ flies in three distinct ways: flies were fed either GABA, DL-2,4-diaminobutyric acid (DABA) which is a GABA-transaminase inhibitor and/or a GABA reuptake inhibitor or the anticonvulsant valproic acid (VPA) which induces GABA release (Chateauvieux (2010), Journal of biomedicine & biotechnology 2010; Coghlan (2012), Neurosci Biobehav Rev 36, 2044-2055; Reynolds (2007), Current medicinal chemistry 14, 2799-2812). All compounds were purchased from Sigma-Aldrich and were used as described before (Kanellopoulos (2012), J Neurosci. 32(38):13111-24; Zwarts (2011), PNAS 108, 17070-17075). In brief, the drugs were dissolved as per the manufacturer's instructions and used at the following concentrations: GABA at 50 μM, DABA 100 μM, Valproic acid (VPA) at 1 mM and Diazepam at 50 μM. Compounds in solution were mixed with Formula 4-24® Instant Drosophila Medium (blue food) in water. Approximately 50-60 adult flies were placed in plastic vials containing 500 μl of each solution on top of an agar matrix and allowed to feed ad libitum before behaviour analysis. Vehicle treatment consisted of solvent added to blue food alone.
Example 16. Drug screening to identify compounds that ameliorate social behavior deficits in flies with Cyfip haploinsufficiency. Control (w1118) or CYFIP (Cyfip^85.1/+) flies were treated, i.e. fed, with various compounds from the Prestwick Chemical Library® as described in Examples 8 and 15. All compounds were used at a concentration of 50 μM. The total number of social interactions was analyzed in a competition for food assay at various time-points (1, 2 or 5 days) of treatment with the compound or vehicle controls as described in Example 2.

[3] = test system: flies with GABAergic-specific or pan-neuronal Cyfip abrogation; assay: competition for food assay (social interactions) in flies with Cyfip abrogation (UAS-Cyfip-IR); assay type: in vivo, Drosophila; conditions: for social interactions: flies with GABAergic-specific Cyfip abrogation, GABA, DABA or VPA in food
Excerpt: To control Cyfip expression, the tissue specific GAL4/UAS system was employed (Brand and Perrimon, 1993). […] Specifically, the UAS-Cyfip-RNAi transgene (UAS-Cyfip-IR) was used to abrogate Cyfip expression as described in Galy et al., 2011. To generate GAL4/UAS-Cyfip-IR flies, GAL4/GAL4 females were crossed en masse to UAS-Cyfip-IR/UAS-Cyfip-IR males. The GAL4 drivers are described in Kanellopoulos (2012), J Neurosci. 32(38):13111-24. GAL4 and UAS lines have been isogenized for 6 generations with the w1118 background before crossing. GAL4/GAL4 and UAS-Cyfip-IR/UAS-Cyfip-IR females were also crossed with w^1118 males to generate GAL4/+ and UAS-Cyfip-IR/+ progeny respectively that served as controls which should not produce the RNAi construct.
Tissue-specific GAL4 expression was achieved using the tissue-specific GAL4 promoters as follows: pan-neuronal (Elav), in cholinergic (Cha-Gla4), and GABAergic (Gad-Gal4). To avoid neurodevelopmental problems and possible lethality, the ElavGal4, was combined with the temporal TubGal80^ts system (McGuire et al., 2003; McGuire et al., 2004). At 18° C., TubGal80^ts is expressed and binds GAL4, prohibiting its binding to the UAS (i.e., no transcription of UAS-Cyfip-IR). In contrast, at 29-30° C. TubGal80^ts is degraded and will release GAL4 which in turn will bind the UAS thus activating transcription of UAS-Cyfip-IR. […] All flies/progeny for promoter-Gal4;TubGal80^ts and their controls were cultured at 18° C. and 2-days after eclosion were placed at 29-30° C. allowing UAS-Cyfip-IR transcription.
as §1
Example 8. GABA augmentation fully normalizes the behavioral abnormalities of Cyfip^85.1/+ flies. […]

wild type flies = assay: competition for food assay (total number of social events) in wild type (control) flies; assay type: in vivo, Drosophila
Protocol: as §1, §2

Cyfip^85.1/+ flies [4] = assay: Drosophila locomotor activity (DAM system); assay type: in vivo; conditions: 10 μM rotenone for 4 days
Protocol: The Drosophila Activity Monitoring (DAM) system from Trikinetics Inc. (Walthman, MA) was used to record the locomotor activity of flies. Male flies (1-week old), anesthetised on ice, were individually loaded into the locomotor activity-monitoring tubes, thin 5 mm diameter polycarbonate tubes containing 5% sucrose and 2% agar food and incubated for at least 4 days under 12:12 LD (light-dark) conditions at 25° C. and 50-60% humidity. Light was turned on at 7:30 am and turned off at 7:30 pm. The DAM system software counts the number of times the single fly walks through an infrared beam aimed at the middle of the tube. Data were recorded as the number of crossings (transitions) per bin of 5-30 minutes. To allow the flies to recover from anaesthesia and to get acclimatized to the new environment data from the first day was excluded from the analysis. Two independent experiments were performed and at least 40 flies for each genotype were analysed. Statistical analysis was conducted using GraphPad Prism 6.0 software. Data were evaluated by one-way analysis of variance (ANOVA) with Sidak's post hoc test and by non-parametric Kruskal-Wallis's test with Dunn's correction.

[5] = test system: mitochondrial membrane potential; assay: mitochondrial membrane potential by TMRE staining of fly brains; assay type: in vivo, Drosophila; conditions: wild type flies; oligomycin 500 μM in the food
Protocol: Briefly, for the TMRE (Enzo) and Rhodamine 123 (Sigma-Aldrich) stainings, brains were dissected in HL3 solution (mM): 110 NaCl, 5 KCl, 10 NaHCO3, 5 Hepes, 30 sucrose, 5 trehalose, and 10 MgCl2, pH 7.2. Dissected brains were stained with 10 nM TMRE or Rhodamine123 dye for 5 minutes at room temperature. Brains were quickly washed with HL3 solution, mounted on glass slides and imaged immediately with confocal microscope Leica SP8 using the same settings for all the samples.
(§3) Since Aralar needs a proton for import of its substrate (i.e. GABA) into mitochondria, the equilibrium distribution of the transport substrates is set by the pH gradient across the mitochondrial membrane, which in turn is a function of fuel availability, oxidative phosphorylation and activity of the TCA cycle.

GABA = GABA levels by ELISA after fractionation of fly brains; assay type: in vivo, Drosophila; conditions: wild type flies; oligomycin 500 μM in the food
Protocol: Finally, GABA levels were measured by ELISA (GABA ELISA Enzyme immunoassay (IBL, ID59301) following a fractionation to enrich for mitochondria or synaptic vesicles (Depner (2014), Nat Protoc 9, 2796-2808). In brief, total brain lysates, isolated mitochondria and vesicles were used for GABA derivatization. The samples were incubated with a polyclonal antibody against GABA-derivative, together with assay reagent containing the GABA-derivative (tracer). The concentration of antibody-bound tracer is inverse proportional to the GABA concentration in the sample. Peroxidase conjugate was added detect the tracer and tetramethylbenzidine (TMB) served as a peroxidase substrate. The absorbance was measured in a microplate photometer at 450 nm.
as §3

## CC(=O)c1ccc(S(=O)(=O)NC(=O)NC2CCCCC2)cc1 [Acetohexamide, 4-Acetyl-N-[(cyclohexylamino)carbonyl]benzenesulfonamide]
GABA release
  GABA release: indirectly increase GABA release
[1]
  mitochondrial membrane potential: decrease the mitochondrial membrane potential

## NCCCC(=O)O [GABA, gamma-Aminobutyric acid]
Cyfip^85.1/+ flies [2]
  social behavior deficit (social events): ameliorated the social behavior deficit
Cyfip^85.1/+ flies [2]; Cyfip^85.1/+ flies treated 5 days with GABA, tested post treatment
  duration of the effect post treatment (competition for food): 2 days
[3]; adult pan-neuronal Cyfip abrogation, GABA feeding 5 days
  behavioral deficits (social interactions): rescued behavioral deficits
[3]
  social interactions: restored the social interactions
Wild type flies; adult wild-type flies, high GABA diet, 5 days
  social interaction: decreased social interaction

## Cc1ccccc1C(C(=O)NC1CCCC1)N(C(=O)Cn1cnc2ccccc21)c1cccc(F)c1 (stereo not drawn) [ML309, 2-(N-[2-(benzimidazol-1-yl)acetyl]-3-fluoroanilino)-N-cyclopentyl-2-(2-methylphenyl)acetamide]
Cyfip^85.1/+ flies [2]; Cyfip^85.1/+ flies, ML309 with the food at 50 µM, 1 or 3 days
  abnormal social feeding behavior (social events, competition for food): ameliorated the abnormal social feeding behavior

## 4-formyl-5-hydroxy-6-methylpyridin-3 yl) methyl dihydrogen phosphate [pyridoxal 5′-phosphate hydrate]
Cyfip^85.1/+ flies [2]; Cyfip^85.1/+ flies
  number of social events: rescues the deficits in social behavior
Cyfip^85.1/+ flies [2]; Cyfip^85.1/+ flies, listed as PLP
  number of social events: increased the number of social events to the level observed for normal wild type flies
Wild type flies; wild type flies, 1 mM in the food, 2 days
  number of social events: reduced the number of social events

## O=C1CCc2ccc(OCCCCN3CCN(c4cccc(Cl)c4Cl)CC3)cc2N1 [Aripiprazole, 7-[4-[4-(2,3-dichlorophenyl)piperazin-1-yl]butoxy]-3,4-dihydro-1H-quinolin-2-one]
[1]
  mitochondrial membrane potential: decreases the mitochondrial membrane potential

## C=C(C)[C@H]1Cc2c(ccc3c2O[C@@H]2COc4cc(OC)c(OC)cc4[C@@H]2C3=O)O1 [rotenone]
Cyfip^85.1/+ flies [2]; Cyfip^85.1/+ flies treated 4 days with rotenone, tested for 5 days post-treatment
  reversibility of the effect of treatment on social behavior: reversible
Cyfip^85.1/+ flies [2]; Cyfip^85.1/+ flies, rotenone 1-10 μM in the food, 4 days
  social deficits (competition for food): ameliorate social deficits
Wild type flies; wild type flies, rotenone 1-10 μM in the food, 4 days
  behavior of wild type flies (competition for food): no effect
Cyfip^85.1/+ flies [4]
  hyperactivity (locomotion over 24 hours): did not restore the hyperactivity
Cyfip^85.1/+ flies [4]; listed as Rotenone
  hyperactivity (locomotion over 24 hours): does not rescue hyperactivity

## CCCC(CCC)C(=O)O [VPA, valproic acid]
Cyfip^85.1/+ flies [2]
  social behavior deficit (social events): ameliorated the social behavior deficit
[3]
  social interactions: restored the social interactions

## CC[C@H]1/C=C/C=C/C[C@@H](C)[C@H](O)[C@@](C)(O)C(=O)[C@@H](C)[C@H](O)[C@@H](C)C(=O)[C@@H](C)[C@H](O)[C@@H](C)/C=C/C(=O)O[C@@H]2[C@H](C)[C@H](CC1)O[C@]1(CC[C@H](C)[C@H](C[C@@H](C)O)O1)[C@H]2C [oligomycin]
[5]
  mitochondrial membrane potential (TMRE staining): increasing mitochondrial membrane potential
GABA
  level of available GABA in the cytosol (ELISA): decreased
Wild type flies; wild type flies, oligomycin 500 μM in the food, 1 day
  competition for food: decreased

## COc1ccc(CN2CCNCC2)c(OC)c1OC.Cl.Cl [Trimetazidine dihydrochloride, 1-[(2,3,4-trimethoxyphenyl)methyl]piperazine dihydrochloride]
[1]
  mitochondrial membrane potential: balances the mitochondrial membrane potential

## CCCNC(=O)NS(=O)(=O)c1ccc(Cl)cc1 [Chlorpropamide, (1-[p-Chlorobenzenesulfony1]-3-propylurea)]
GABA release
  GABA release: indirectly increase GABA release
[1]
  mitochondrial membrane potential: decrease the mitochondrial membrane potential

## NCCC(N)C(=O)O (racemic) [DABA, DL-2,4-diaminobutyric acid]
Cyfip^85.1/+ flies [2]
  social behavior deficit (social events): ameliorated the social behavior deficit
[3]
  social interactions: restored the social interactions
